According to US20090088364A1, “Pharmaceutical composition useful for the treatment of invasive pulmonary aspergillosis” (priority 2004, published 2009):
“Also recorded” adds a separate entry of the source.

How the values were obtained:
[1] = system: A. fumigatus; assay: Survival of immunosuppressed IPA mice monitored for 15 days; type: in vivo, BALB/c mice; settings: for survival / survival rate: IPA mice
Method: For preparation of animal models of invasive pulmonary aspergillosis, BALB/c mice were divided into various experimental and control groups and subgroups as shown in Table I.
The BALB/c mice were immunosuppressed by three intradermal injections of 2.5 mg of hydrocortisone acetate (Wycort) per 20 g mouse per day 1 day before, the day of, and the day after spore challenge.
On the day of spore challenge (day 0), mice were lightly anesthesized with ether and 10^8 spores of A. fumigatus in 50 μl of sterile saline were administered intranasally in the groups of IPA mice, while 50 μl of saline alone was administered to the untreated control mice. The MBL-treated control and IPA mice received 1 μg of MBL in 50 μl of saline per mouse on day 1, and the groups of untreated control and untreated IPA mice received 50 μl of saline alone intranasally on day 1.
(§1) The survival rates of the MBL treated and untreated mice were monitored for 15 days (FIG. 1). Among the rest of the mice left in each group, two mice were sacrificed each on 4th and 7th day after fungal exposure and lung tissues were collected for histopathology and counting the colony forming units of the fungus (CFUs). For estimating the pulmonary fungal load and hyphae density of the mice, lungs were aseptically removed from each group of mice sacrificed on the 4th and 7th day, after the spore challenge. A portion of the lung tissue (10 mg) was homogenized with a mechanical homogenizer for 1 min in sterile PBS. The suspension was serially diluted 2-fold and incubated in triplicates on Sabouraud Agar (SDA) plates at 37° C. A. fumigatus colonies were counted after 24 hrs incubation and the values represent average±standard deviation of six data points (three from each dilution). The number of Colony forming units (CFUs) that appeared on the plates corresponds to the pulmonary fungal load of different groups. […] The other portion of the lung was kept in 10% formalin for histopathological studies of the lung sections.
The animal model of invasive pulmonary aspergillosis is prepared by known methods of the immunosuppression of the mice (Allen et al, 1994) followed by exposure to A. fumigatus spores. The mice were immunosuppressed by three intradermal injections of 2.5 mg of hydrocortisone acetate (Wycort) per 20 g of mouse per day one day before, the day of, and the day after spore challenge (day −1, 0, +1).
On the day of spore challenge (day 0), mice were lightly anesthesized with ether and 10^8 spores of A. fumigatus in 50 μl of sterile saline were administered intranasally in the groups of IPA mice, while 50 μl of saline alone was administered to the untreated control mice.
The administration of different concentrations of purified human rMBL (1-5 µg/mice) in saline intranasally to different groups of mice is described in Table I. The animal models of invasive pulmonary aspergillosis and their respective controls were given treatment with rMBL and amphotericin B. The amphotericin B treated mice acted as the positive control, since amphotericin B is a standard known antifungal agent.
(§2) The 1 µg rMBL-treated control and IPA mice received 1 μg of rMBL in 50 μl of saline per mouse on day 1. Similarly, 3 μg rMBL-treated control and IPA mice received 3 μg of rMBL in 50 μl of saline per mouse on day 1 and 5 µg rMBL-treated control and IPA mice received 5 μg of rMBL in 50 μl of saline per mouse on day 1. The AmB-treated control and IPA mice received AmB (134.6 μg) only on day 1. The groups of untreated control and untreated IPA mice received 50 μl of saline without rMBL intranasally on day 1.
(§3) Different groups of mice were monitored for 15 days for survival and thereby their survival rate was calculated.

[2] = system: A. fumigatus; assay: Fungal hyphae density in lung sections (histopathology) of IPA mice; type: in vivo, BALB/c mice; settings: for fungal hyphae density compared to untreated IPA mice: FIG. 3, histopathology of lung sections
Excerpt: as §1
For visualization of the fungal hyphae in the lungs of the mice, a portion of the lungs collected from the mice sacrificed on 4th and 7th day from treated and untreated groups after spore challenge and trimmed of extraneous tissue was kept in 10% formalin for histopathological studies and stored at 4° C. The tissue sections, made using a microtome and stained with hematoxylin and eosin, were examined at the magnification of 40×.

[3] = system: A. fumigatus; assay: Pulmonary fungal load (CFU counts in lung homogenate) in IPA mice; type: in vivo, BALB/c mice; settings: for fungal load: description
Excerpt: as §1
For estimating the pulmonary fungal load and hyphae density of the mice, lungs were aseptically removed from each group of mice sacrificed on the 4th and 7th day, after the spore challenge. A portion of the lung tissue (10 mg) was homogenized with a mechanical homogenizer for 1 min in sterile PBS. The suspension was serially diluted 2-fold and incubated in triplicate on Sabauraud Agar (SDA) plates at 37° C. A. fumigatus colonies were counted after 24 hrs incubation and the values represent average±standard deviation of six data points (three from each dilution). The number of Colony forming units (CFUs) that appeared on the plates corresponds to the pulmonary fungal load of different groups.

[4] = Survival of immunosuppressed control mice that received no spores; type: in vivo, BALB/c mice
Method: as §2, §3

[5] = system: A. fumigatus conidia; settings: in vitro, purified human MBL; cited from earlier work
[6] = Example 6, PBS pH 7.2, treated with AmB or rMBL
[7] = Example 7, PBS pH 7.4, treated with AmB or rMBL
[8] = Example 8, TBS pH 7.6, treated with AmB or rMBL
[9] = Example 9, TBS pH 8.0, treated with AmB or rMBL
[10] = Example 6, PBS pH 7.2, rMBL 1-5 μg/mice
[11] = Example 8, TBS pH 7.6, rMBL 1-5 μg/mice
[12] = Example 9, TBS pH 8.0, rMBL 1-5 ug/mice

C[C@@H]1[C@H](O)[C@@H](C)/C=C/C=C/C=C/C=C/C=C/C=C/C=C/[C@H](O[C@@H]2O[C@H](C)[C@@H](O)[C@H](N)[C@@H]2O)C[C@@H]2O[C@](O)(C[C@@H](O)C[C@@H](O)[C@H](O)CC[C@@H](O)C[C@@H](O)CC(=O)O[C@H]1C)C[C@H](O)[C@H]2C(=O)O [AmB, Amphotericin B, reference compound]
survival ([1]; Example 6, PBS pH 7.2, AmB 134.6 μg on day 1): 80% | survival ([1]; Example 7, PBS pH 7.4, AmB 134.6 μg on day 1): 80% | survival ([1]; Example 8, TBS pH 7.6, AmB 134.6 μg on day 1): 80% | survival ([1]; Example 9, TBS pH 8.0, AmB 134.6 μg on day 1): 80% | survival rate ([1]; FIG. 1, amphotericin B (134.6 μg) on day 1): 80% | fungal hyphae density compared to untreated IPA mice [2]: decreases; also recorded: drastic decrease | CFUs in the lung homogenates ([3]; Example 7, PBS pH 7.4, 4th day after spore challenge, AmB 134.6 μg): 5.65±0.07 CFUs×10^6/gm of lung tissue | fungal load ([3]; FIG. 2, amphotericin B treated IPA mice): 5.65±0.07 CFUs×10^6/gm of lung tissue | survival of control mice [4, 6]: 100% | survival of control mice [4, 7]: 100% | survival of control mice [4, 8]: 100% | survival of control mice [4, 9]: 100%

rMBL: purified human recombinant mannan-binding lectin (MBL) protein, in solution form produced by recombinant technology
survival ([1]; Example 6, PBS pH 7.2, 1 μg rMBL intranasally day 1): 80% | survival ([1]; Example 6, PBS pH 7.2, 3 μg rMBL intranasally day 1): 80% | survival ([1]; Example 6, PBS pH 7.2, 5 μg rMBL intranasally day 1): 40% | percentage of survival, change in treated IPA mice [1, 10]: increase | survival ([1]; Example 7, PBS pH 7.4, 1 μg rMBL intranasally day 1): 80% | survival ([1]; Example 7, PBS pH 7.4, 5 μg rMBL intranasally day 1): 40% | percentage of survival, change in treated IPA mice ([1]; Example 7, PBS pH 7.4, rMBL 1-5 μg/mice, FIG. 1): increase | survival ([1]; Example 8, TBS pH 7.6, 1 μg rMBL intranasally day 1): 80% | survival ([1]; Example 8, TBS pH 7.6, 5 μg rMBL intranasally day 1): 40% | percentage of survival, change in treated IPA mice [1, 11]: increase | survival ([1]; Example 9, TBS pH 8.0, 1 μg rMBL intranasally day 1): 80% | survival ([1]; Example 9, TBS pH 8.0, 5 μg rMBL intranasally day 1): 40% | percentage of survival, change in treated IPA mice [1, 12]: increase | survival rate ([1]; FIG. 1, 1 µg MBL intranasally on day 1): 80% | survival rate ([1]; FIG. 1, 3 µg MBL intranasally on day 1): 80% | fungal hyphae density in the lungs compared to untreated IPA mice ([2]; Example 6, PBS pH 7.2): decrease | fungal hyphae density in the lungs compared to untreated IPA mice ([2]; Example 7, PBS pH 7.4, FIG. 3): decrease | fungal hyphae density in the lungs compared to untreated IPA mice ([2]; Example 8, TBS pH 7.6): decrease | fungal hyphae density in the lungs compared to untreated IPA mice ([2]; Example 9, TBS pH 8.0): decrease | fungal hyphae density compared to untreated IPA mice ([2]; listed as MBL): decreases; also recorded: drastic decrease | pulmonary fungal load compared to untreated IPA mice [3, 10]: reduction | CFUs in the lung homogenates ([3]; Example 7, PBS pH 7.4, 4th day after spore challenge, 1 μg rMBL): 4.6±0.5 CFUs×10^6/gm of lung tissue | CFUs in the lung homogenates ([3]; Example 7, PBS pH 7.4, 4th day after spore challenge, 3 μg rMBL): 4.2±0.4 CFUs×10^6/gm of lung tissue | CFUs in the lung homogenates ([3]; Example 7, PBS pH 7.4, 4th day after spore challenge, 5 μg rMBL): 6.4±0.5 CFUs×10^6/gm of lung tissue | pulmonary fungal load compared to untreated IPA mice ([3]; Example 7, PBS pH 7.4, rMBL 1-5 μg/mice): reduction | pulmonary fungal load compared to untreated IPA mice [3, 11]: reduction | pulmonary fungal load compared to untreated IPA mice [3, 12]: reduction | pulmonary fungal load, CFU counts ([3]; FIG. 2, 4th day after spore challenge, 3 µg MBL treated IPA mice): 4.2±0.4 CFU counts per gram of the lung tissue | fungal load ([3]; FIG. 2, 1 µg MBL treated IPA mice): 4.6±0.5 CFUs×10^6/gm of lung tissue | fungal load ([3]; FIG. 2, 3 µg MBL treated IPA mice): 4.2±0.4 CFUs×10^6/gm of lung tissue | concentration range that most effectively mediates the killing of the fungus [5]: 1 to 5 µg/mL | survival of control mice [4, 6]: 100% | survival of control mice [4, 7]: 100% | survival of control mice [4, 8]: 100% | survival of control mice [4, 9]: 100%
